Consider 17 compounds from US20240398783A1, “Compounds and Pharmaceutical Compositions Comprising Inhibitors of Amyloid Peptide Interactions with Glycosaminoglycans, Methods of Treatment and Use Thereof” (Gismo Therapeutics, Inc., priority 2021, published 2024).

Assay [1] deals with Amyloid-beta(1-40) binding to heparin (HS-GAG) (Homo sapiens, UniProt P05067). As to the kind of experiment: Inhibition of Amyloid-beta(1-40) binding to immobilized heparin-BSA (ELISA). The note with it: for IC50: Abeta(1-40), co-incubation on heparin-BSA plates; for inhibition at 30 µM: read-out: Abeta40/Heparin Activity (% inhibition class). On the set-up: species or system porcine. The protocol: (§1) Porcine intestinal mucosa heparin conjugated to Bovine Serum Albumin (Heparin-BSA) was prepared as described (Najjam, S. et al. 1997, Cytokine 12, 1013-1022). Heparin is a sulfated HS-GAG and is commonly used as a HS-GAG in biochemical and binding assays (Lindahl, U. and Kjellen, L. (2013) ibid). Heparin-BSA at 0.01 mg/ml in Phosphate Buffered Saline (PBS; pH 7.4) was added to a 96 well polystyrene ELISA plate (NUNC Cat. No. 449824; 100 μl per well) and incubated Over Night (ON) at 4 degrees Celsius. For negative controls, ELISA plates were coated with BSA instead of Heparin-BSA, using the same procedure. Following the incubation, the plate was washed consecutively, by immersion, with de-ionized water and PBS (pH 7.4). The ELISA plate was then blocked with nonfat milk (2%, 200 μl per well) for 2 hours at Room Temperature (RT) with gentle shaking. Following blocking, the plate was washed with de-ionized water then PBS (pH 7.4). GBAPs were dissolved and diluted in PBS (pH 6.5, supplemented with 0.1% BSA) at desired concentrations, added to the ELISA plates containing immobilized Heparin-BSA (100 μl per well) and incubated for 2 hours at RT with gentle shaking. Following incubation, the plate was washed with de-ionized water and three times with PBS (pH 6.5) plus Tween. Bound GBAP was detected by a monoclonal antibody specific for that GBAP, followed by incubation with secondary antibody conjugated to horseradish peroxidase (HRP). Antibody was diluted in PBS (pH 6.5 supplemented with 1% BSA). Following each incubation with antibody, the plate was washed with de-ionized water and three times with PBS (pH 6.5) wash buffer containing 0.1% Tween. The peroxidase substrate chromogen, TMB (Dako Cat. No. S1599) was added (100 μl per well) to the ELISA plate and incubated at room temperature. After 5 minutes ELISA Stop Solution (hydrochloric acid 1N, sulfuric acid 3N) was added (100 μl per well) to stop the peroxidase catalyzed colorimetric reaction. The Optical Density of the samples was measured at 450 nm using an ELISA plate reader (BioTek Synergy H1). Following color development, the % inhibition compared to control (BSA-coated plates) was determined. IC-50s were calculated using GraphPad Prism software.
The assay was performed as described in Example 43, with the following modifications. Following to coating the plates with Heparin-BSA, plates were washed as described. The compounds were dissolved in DMSO at 10 mM final concentration and further diluted prior to assay. DMSO concentration in the screening well was up to 2%. Individual compounds were co-incubated with Beta-amyloid peptides on plates containing immobilized heparin. Beta-amyloid (1-42) was purchased from rPeptide (Cat. No. A1163) and used to prepare oligomers according to Stine et al., 2003 (J Biol Chem. 278(13):11612-22) as follows. 1,1,1,3,3,3-Hexafluoro-2-propanol- (HFIP; Sigma Cat. No. 105228)-treated Beta amyloid (1-42) was dissolved in dry DMSO (Sigma Cat. No. D2650) to 5 mM concentration. Dissolved Beta amyloid (1-42) was then diluted to 100 μM in ice-cold cell culture medium (phenol red-free Ham's F-12; Caisson Labs, Cat. No. HFL05), followed immediately by vortexing for 30 seconds, and incubating at 4 degrees Celsius for 24 h. Resulting Beta amyloid (1-42) oligomers were centrifuged at 12,000 rpm for 10 min at 4 degree Celsius to remove aggregates. Oligomers were then quickly frozen and kept in aliquots at −80 degrees Celsius. Beta-amyloid (1-40) from rPeptide (Cat No. A1153) was dissolved in DMSO, quickly frozen and kept in aliquots at −80 degrees Celsius. Beta-amyloid (1-42) oligomers or Beta-amyloid (1-40) diluted in PBS (pH 6.5, supplemented with BSA, 0.1%) were added to the ELISA plate (100 μl per well) and incubated for 2 hours at RT with gentle shaking. Following the incubation, the plate was washed with de-ionized water and three times with PBS (pH 6.5) plus Tween. […]
(In general: ELISA stands for enzyme-linked immunosorbent assay.)

The target in assay [2] is T1, SAA binding to heparin (HS-GAG) (Homo sapiens, UniProt P0DJI8).
T1 sequence (P0DJI8 19-122): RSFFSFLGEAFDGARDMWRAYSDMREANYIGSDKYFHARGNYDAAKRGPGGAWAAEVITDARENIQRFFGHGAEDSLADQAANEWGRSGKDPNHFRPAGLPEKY
As to the kind of experiment: Inhibition of SAA binding to immobilized heparin-BSA (ELISA). On the set-up: species or system porcine. The procedure:
as §1
The assay was performed as described in Example 43, with the following modifications. Following to coating the plates with Heparin-BSA, plates were washed as described. The compounds were dissolved in DMSO at 10 mM final concentration and further diluted prior to assay. DMSO concentration in the screening well was up to 2%. Individual compounds were co-incubated with SAA on plates containing immobilized heparin. Serum amyloid A (SAA) from PeProtech (NJ, USA, Cat. No. 300-53) was dissolved in DMSO, quickly frozen and kept in aliquots at −80 degrees Celsius. SAA dissolved in Tris buffer (pH 6.5, supplemented with BSA, 0.1%) was added to the ELISA plate (100 μl per well) and incubated for 2 hours at RT with gentle shaking. Following the incubation, the plate was washed with de-ionized water and three times with Tris Buffered Saline (TBS, pH 6.5) plus Tween. Bound SAA was detected by Anti-SAA Monoclonal Antibody (R&D System Cat. No. MAB30192), followed by secondary anti-IgG antibody conjugated to HRP (R&D System, Cat. No. HAF007). Antibody was diluted in TBS antibody buffer (pH6.5 supplemented with 1% BSA). Following each incubation with antibody, the plate was washed with de-ionized water and three times with TBS (pH6.5) wash buffer containing 0.1% Tween. Following to color development with TMB, as described in Example 43, the Optical Density of the samples was measured at 450 nm using an ELISA plate reader. Following color development, the % inhibition compared to control (no compound, DMSO control) for every compound was determined.
As described in Example 43, Heparin in the form of Heparin-BSA conjugate is used as a source of HS-GAG. For each compound IC-50 value in SAA—heparin-BSA binding assay is shown in μM (micromolar). […]

[3] abbreviates: Abeta40/Heparin Activity (IC-50).
Where [4] appears, read: read-out: Serum Amyloid A/Heparin Activity (IC-50); SAA, heparin-BSA.
Where [5] appears, read: read-out: Abeta40/Heparin Activity (IC-50).
Setting [6] is: SAA, heparin-BSA; read-out: Serum Amyloid A/Heparin Activity (IC-50).
[7] abbreviates: read-out: Serum Amyloid A/Heparin Activity (% inhibition class).

The structures appear in SMILES notation. Counter-ions that a name gives are not always drawn. Like-named read-outs stand apart in the source and are kept apart here.

Amyloid-beta(1-40) binding to heparin (HS-GAG), sequence (P05067 672-711): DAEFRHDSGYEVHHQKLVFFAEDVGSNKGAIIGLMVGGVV

On to `C/C(=N\Nc1ncnc2cc(Cl)ccc12)c1ccc(-n2cc[n+](C)c2)nc1` [Compound 17, (E)-1-(5-(1-(2-(7-chloroquinazolin-4-yl)hydrazineylidene)ethyl)pyridin-2-yl)-3-methyl-1H-imidazol-3-ium iodide phosphoric acid salt], for which the IC50 in assay [1] (setting [3]) amounted to 28.1 µM; in assay [2] (setting [4]), 34.9 µM.

As for `C/C(=N\Nc1ncnc2cc(Cl)ccc12)c1ccc(-n2cc(C)nc2C)nc1` [Compound 18, (E)-7-chloro-4-(2-(1-(6-(2,4-dimethyl-1H-imidazol-1-yl)pyridin-3-yl)ethylidene)hydrazineyl)quinazoline phosphoric acid salt], the IC50 was 3.31 µM in assay [1] (setting [5]) and 22.2 µM in assay [2] (setting [6]).

With `C/C(=N\Nc1ncnc2ccccc12)c1ccc(-n2cc(C)nc2C)nc1` [Compound 19, (E)-4-(2-(1-(6-(2,4-dimethyl-1H-imidazol-1-yl)pyridin-3-yl)ethylidene)hydrazineyl)quinazoline], the IC50 in assay [1] (setting [3]) turned out to be 10.2 µM; in assay [2] (setting [4]) it was 8.59 µM.

With `CN1CCN(c2cc(Nc3ccnc4cc(Cl)ccc34)ccn2)CC1` [Compound 20, 7-chloro-N-(2-(4-methylpiperazin-1-yl)pyridin-4-yl)quinolin-4-amine], the inhibition at 30 µM is less than 30% in assay [1] and greater than 30% in assay [2] (setting [7]).

In the case of `C/C(=N\Nc1ncnc2cc(F)ccc12)c1ccc(-n2cnc(C)c2C)nc1` [Compound 21, (E)-4-(2-(1-(6-(4,5-dimethyl-1H-imidazol-1-yl)pyridin-3-yl)ethylidene)hydrazineyl)-7-fluoroquinazoline], the IC50 in assay [1] (setting [5]) stood at 7.41 µM; in assay [2] (setting [6]) it was 85.2 µM.

Turning to `CC(=NNc1ccnc2cc(Cl)ccc12)c1ccc(-n2cnc(C)c2C)nc1` [Compound 22, 7-chloro-4-(2-(1-(6-(4,5-dimethyl-1H-imidazol-1-yl)pyridin-3-yl)ethylidene)hydrazineyl)quinoline], the IC50 in assay [1] (setting [3]) came to 16.3 µM; in assay [2] (setting [4]), 83.2 µM.

Take `CC(=NNc1ccnc2cc(Cl)ccc12)c1ccc(-n2cc[n+](C)c2)nc1` [Compound 23, 1-(5-(1-(2-(7-chloroquinolin-4-yl)hydrazineylidene)ethyl)pyridin-2-yl)-3-methyl-1H-imidazol-3-ium iodide]: the figures for the inhibition at 30 µM in assay [1] and in assay [2] (setting [7]) were greater than 30% and less than 30%, respectively.

As for `C/C(=N\Nc1nncc2cc(Cl)ccc12)c1ccc(-n2cc(C)nc2C)nc1` [Compound 24, (E)-6-chloro-1-(2-(1-(6-(2,4-dimethyl-1H-imidazol-1-yl)pyridin-3-yl)ethylidene)hydrazineyl)phthalazine], the IC50 in assay [1] (setting [5]) worked out at 6.42 µM; in assay [2] (setting [6]), 7.89 µM.

Consider `Cc1ncn(-c2ccc(Nc3ncnc4cc(Cl)ccc34)cn2)c1C` [Compound 25, 7-chloro-N-(6-(4,5-dimethyl-1H-imidazol-1-yl)pyridin-3-yl)quinazolin-4-amine], for which the IC50 amounted to 1.7 µM in assay [1] (setting [3]) and 40.9 µM in assay [2] (setting [4]).

Turning to `C/C(=N\Nc1ncnc2cc(F)ccc12)c1ccc(-n2cc[n+](C)c2)nc1` [Compound 26, (E)-1-(5-(1-(2-(7-fluoroquinazolin-4-yl)hydrazineylidene)ethyl)pyridin-2-yl)-3-methyl-1H-imidazol-3-ium phosphoric acid salt], the IC50 in assay [1] (setting [3]) is 10.2 µM. In addition, in assay [2] (setting [7]), the inhibition at 30 µM is less than 30%.

In the case of `C/C(=N\Nc1ncnc2cc(Cl)ccc12)c1ccc(-n2cc(C)nc2C)nc1` [Compound 27, (E)-7-chloro-4-(2-(1-(6-(2,4-dimethyl-1H-imidazol-1-yl)pyridin-3-yl)ethylidene)hydrazineyl)quinazoline hydrochloride], the IC50 in assay [1] (setting [3]) amounted to 2.2 µM; in assay [2] (SAA, heparin-BSA; hydrochloride; read-out: Serum Amyloid A/Heparin Activity (IC-50)), 24.7 µM.

For `CC(=NNc1ncnc2cc(Cl)ccc12)c1ccnc(-n2cnc(C)c2C)c1` [Compound 28, 7-chloro-4-(2-(1-(2-(4,5-dimethyl-1H-imidazol-1-yl)pyridin-4-yl)ethylidene)hydrazineyl)quinazoline], the figures for the IC50 in assay [1] (setting [5]) and in assay [2] (setting [6]) were 3.12 µM and 8.78 µM, respectively.

On to `C/C(=N\Nc1ncnc2cc(Cl)ccc12)c1cccc(N2CCN(C)CC2)c1` [Compound 30, 7-chloro-4-(2-(1-(3-(4-methylpiperazin-1-yl)phenyl)ethylidene)hydrazineyl)quinazoline], for which the inhibition at 30 µM in assay [1] was greater than 30%; in assay [2] (setting [7]), less than 30%.

Turning to `COc1cc(Nc2nncc3cc(Cl)ccc23)cnc1-n1cnc(C)c1C` [Compound 31, 6-chloro-N-(6-(4,5-dimethyl-1H-imidazol-1-yl)-5-methoxypyridin-3-yl)phthalazin-1-amine phosphoric acid salt], in assay [1] (setting [3]), the IC50 was 23.3 µM. Moreover, the inhibition at 30 µM in assay [2] (setting [7]) is greater than 30%.

As to `COc1cc(Nc2cncc3cc(Cl)ccc23)cnc1-n1cnc(C)c1C` [Compound 33, 7-chloro-N-(6-(4,5-dimethyl-1H-imidazol-1-yl)-5-methoxypyridin-3-yl)isoquinolin-4-amine phosphoric acid salt], the inhibition at 30 µM in assay [1] and in assay [2] (setting [7]) was less than 30% in each case.

With `Clc1ccc2c(Nc3ccc(-n4cncn4)nc3)ncnc2c1` [Compound 34, N-(6-(1H-1,2,4-triazol-1-yl)pyridin-3-yl)-7-chloroquinazolin-4-amine phosphoric acid salt], the IC50 in assay [1] (setting [3]) is 34.8 µM; in assay [2] (setting [4]) it was 12.4 µM.

`Fc1cc(/C=N/Nc2ccnc3cc(Cl)ccc23)ccc1-n1ccnc1` [Compound 35, (E)-7-chloro-4-(2-(3-fluoro-4-(1H-imidazol-1-yl)benzylidene)hydrazineyl)quinoline hydrochloride]: the inhibition at 30 µM in assay [1] is less than 30%. The IC50 in assay [2] (setting [4]) turned out to be 31.8 µM.
